According to patent publication US9573911B2, “Diphosphate mimetics and uses thereof” (President and Fellows of Harvard College, priority 2011, dated 2017):
Where two headings read alike, the source gives them in different places.

How the values were obtained:
Assay type in all cases: biochemical
OGT = biological target: T1, OGT (Homo sapiens, UniProt O15294); assay: IC50 assay, OGT peptide-capture assay
T1 construct: hOGT4.5 construct (spanning residues 313-1031 based on the numbering of the full length human protein); made in house
T1 sequence (O15294 313-1031 isoform O15294-3): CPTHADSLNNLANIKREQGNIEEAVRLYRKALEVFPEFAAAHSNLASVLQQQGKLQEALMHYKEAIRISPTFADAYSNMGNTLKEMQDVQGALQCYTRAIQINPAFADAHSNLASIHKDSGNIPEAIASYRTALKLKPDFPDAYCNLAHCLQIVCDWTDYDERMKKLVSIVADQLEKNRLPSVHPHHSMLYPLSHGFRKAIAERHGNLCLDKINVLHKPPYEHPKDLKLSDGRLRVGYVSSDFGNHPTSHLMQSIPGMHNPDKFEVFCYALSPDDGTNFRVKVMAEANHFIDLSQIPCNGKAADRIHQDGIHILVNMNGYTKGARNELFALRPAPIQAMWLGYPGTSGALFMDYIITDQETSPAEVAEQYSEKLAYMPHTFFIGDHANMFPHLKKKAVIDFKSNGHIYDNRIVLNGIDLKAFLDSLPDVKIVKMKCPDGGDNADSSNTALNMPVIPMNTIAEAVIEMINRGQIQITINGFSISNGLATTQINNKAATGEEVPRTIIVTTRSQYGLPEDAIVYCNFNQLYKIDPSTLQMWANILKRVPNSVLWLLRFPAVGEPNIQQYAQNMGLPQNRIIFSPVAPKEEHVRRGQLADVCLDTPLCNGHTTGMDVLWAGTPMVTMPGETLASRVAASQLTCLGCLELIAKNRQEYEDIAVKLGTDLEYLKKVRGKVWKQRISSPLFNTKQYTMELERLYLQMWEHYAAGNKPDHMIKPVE
Protocol: IC50 Assay of Thiocarbamate to OGT.
Enzyme activity was tested with the peptide-capture assay in the presence of different concentrations of each compound as previously reported (J. Am. Chem. Soc. 2005, 127, 14588-14589).

SGK (SGK1) = biological target: T2, SGK (SGK1) (Homo sapiens, UniProt O00141); assay: Further kinase screen, Invitrogen Z'-LYTE; settings: Table 3
T2 construct: purchased Invitrogen
T2 sequence (O00141 1-431): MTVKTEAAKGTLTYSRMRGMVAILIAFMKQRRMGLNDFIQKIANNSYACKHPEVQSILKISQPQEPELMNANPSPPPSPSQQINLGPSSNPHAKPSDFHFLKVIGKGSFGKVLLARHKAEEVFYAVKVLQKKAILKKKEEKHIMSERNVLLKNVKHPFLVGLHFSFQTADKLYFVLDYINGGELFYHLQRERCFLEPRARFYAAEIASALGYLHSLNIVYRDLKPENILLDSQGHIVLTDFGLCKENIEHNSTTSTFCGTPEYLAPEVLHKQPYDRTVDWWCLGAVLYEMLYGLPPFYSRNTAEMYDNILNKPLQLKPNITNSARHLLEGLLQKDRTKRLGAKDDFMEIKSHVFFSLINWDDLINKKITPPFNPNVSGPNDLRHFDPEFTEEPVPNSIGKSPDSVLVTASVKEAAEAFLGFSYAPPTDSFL
Protocol: (§1) Kinase profiling was conducted using Invitrogen Z'-LYTE screening protocol and assay conditions found at www.invitrogen.com. Compound (2) inhibited PLK1 completely at 5 μM.
(§2) A further kinase screen was performed on Compounds (2), (4A), and (4B) using the assay described above.

CDK2/cyclin A = biological target: T3, CDK2/cyclin A (Homo sapiens, UniProt P24941); assay: Further kinase screen, Invitrogen Z'-LYTE; settings: Table 3
T3 construct: purchased Invitrogen
Protocol: as §1, §2

PLK1 = biological target: T4, PLK1 (Homo sapiens, UniProt P53350); assay: Kinase profiling, Invitrogen Z'-LYTE; settings: for inhibition at 5 µM / % Inhibition Point 1 / % Inhibition Point 2 / % Inhibition mean: PLK1; for inhibition at 5 µM: Table 2; for % Inhibition Point 1 / % Inhibition Point 2 / % Inhibition mean: Table 3 further screen
T4 construct: purchased Invitrogen
Protocol: as §1, §2

ADRBK1 (GRK2) = biological target: T5, ADRBK1 (GRK2) (Homo sapiens, UniProt P25098); assay: Kinase profiling, Invitrogen Z'-LYTE
T5 construct: purchased Invitrogen
T5 sequence (P25098 1-689): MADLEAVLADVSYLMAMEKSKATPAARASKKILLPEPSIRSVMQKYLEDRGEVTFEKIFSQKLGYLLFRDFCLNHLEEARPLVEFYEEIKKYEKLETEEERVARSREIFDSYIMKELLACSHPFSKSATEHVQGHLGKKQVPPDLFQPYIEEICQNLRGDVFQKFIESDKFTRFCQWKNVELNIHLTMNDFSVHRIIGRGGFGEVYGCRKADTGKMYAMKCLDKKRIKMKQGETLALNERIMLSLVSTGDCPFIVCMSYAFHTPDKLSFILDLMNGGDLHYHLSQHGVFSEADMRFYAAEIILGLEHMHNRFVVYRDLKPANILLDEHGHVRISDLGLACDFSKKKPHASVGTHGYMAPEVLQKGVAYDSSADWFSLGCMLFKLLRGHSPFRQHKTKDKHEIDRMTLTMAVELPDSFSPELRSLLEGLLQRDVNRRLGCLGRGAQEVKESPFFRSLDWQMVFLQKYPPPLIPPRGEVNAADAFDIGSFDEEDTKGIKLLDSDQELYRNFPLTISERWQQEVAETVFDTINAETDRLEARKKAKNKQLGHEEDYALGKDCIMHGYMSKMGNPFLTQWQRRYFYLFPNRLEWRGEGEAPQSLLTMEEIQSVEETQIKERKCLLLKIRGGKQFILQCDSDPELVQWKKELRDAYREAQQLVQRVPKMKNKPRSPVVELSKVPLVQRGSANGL
Protocol: as §1, §2

[1] = peptide-capture assay, different concentrations of each compound, read-out: IC50 Values

T4 sequence (P53350 whole entry): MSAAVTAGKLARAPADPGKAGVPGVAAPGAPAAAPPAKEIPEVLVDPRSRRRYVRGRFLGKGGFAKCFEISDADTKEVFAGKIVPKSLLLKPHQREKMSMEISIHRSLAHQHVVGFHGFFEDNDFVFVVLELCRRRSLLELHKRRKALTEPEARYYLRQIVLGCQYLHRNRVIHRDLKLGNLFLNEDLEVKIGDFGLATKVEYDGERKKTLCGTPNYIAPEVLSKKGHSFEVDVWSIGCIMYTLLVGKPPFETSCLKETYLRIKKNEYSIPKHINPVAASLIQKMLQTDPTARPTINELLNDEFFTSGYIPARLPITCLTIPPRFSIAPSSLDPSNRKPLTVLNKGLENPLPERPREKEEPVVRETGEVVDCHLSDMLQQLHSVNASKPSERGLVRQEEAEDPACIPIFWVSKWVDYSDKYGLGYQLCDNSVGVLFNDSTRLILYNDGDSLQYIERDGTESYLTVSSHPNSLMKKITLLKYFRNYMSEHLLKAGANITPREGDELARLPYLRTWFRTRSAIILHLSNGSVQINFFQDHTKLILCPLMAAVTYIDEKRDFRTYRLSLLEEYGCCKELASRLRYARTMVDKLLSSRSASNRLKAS

Row | IC50 (OGT; [1]) | % Inhibition Point 1 (SGK (SGK1)) | % Inhibition Point 2 (SGK (SGK1)) | % Inhibition mean (SGK (SGK1)) | % Inhibition Point 1 (CDK2/cyclin A) | % Inhibition Point 2 (CDK2/cyclin A) | % Inhibition mean (CDK2/cyclin A) | % Inhibition Point 1 (PLK1) | % Inhibition Point 2 (PLK1) | % Inhibition mean (PLK1) | % Inhibition Point 1 (ADRBK1 (GRK2); Table 3 further screen) | % Inhibition Point 2 (ADRBK1 (GRK2); Table 3 further screen) | % Inhibition mean (ADRBK1 (GRK2); Table 3 further screen) | Compound | other results
1 | 14 µM | 76% | 75% | 76% | 9% | 9% | 9% | 70% | 65% | 68% | 3% | 7% | 5% | COc1ccc(OC(=S)n2c(=O)oc3cc(C(C)=O)ccc32)cc1 [Compound 4A] | –
2 | ~100 µM | 72% | 73% | 73% | −2% | 4% | 1% | 98% | 101% | 100% | 7% | 6% | 7% | COc1ccc(OC(=O)n2c(=S)oc3cc(C(C)=O)ccc32)cc1 [Compound 4B] | –

Row | Compound | IC50 (OGT; [1]) | % Inhibition Point 1 (SGK (SGK1)) | % Inhibition Point 2 (SGK (SGK1)) | % Inhibition mean (SGK (SGK1)) | % Inhibition Point 1 (CDK2/cyclin A) | % Inhibition Point 2 (CDK2/cyclin A) | % Inhibition mean (CDK2/cyclin A) | % Inhibition Point 1 (PLK1) | % Inhibition Point 2 (PLK1) | % Inhibition mean (PLK1) | % Inhibition Point 1 (ADRBK1 (GRK2); Table 3 further screen) | % Inhibition Point 2 (ADRBK1 (GRK2); Table 3 further screen) | % Inhibition mean (ADRBK1 (GRK2); Table 3 further screen) | other results
3 | COc1ccc(OC(=O)n2c(=O)oc3cc(C(C)=O)ccc32)cc1 [Compound 2] | 2 µM | −234% | −237% | −236% | −297% | −301% | −299% | 101% | 101% | 101% | 4% | 7% | 5% | IC50 (OGT; read-out: apparent IC50): 1.6 ± 1.1 µM; PLK1 inhibition (PLK1; 5 μM): completely; inhibition at 5 µM (PLK1; 5 μM, read-out: % Inhibition Point 1): 104%; inhibition at 5 µM (PLK1; 5 μM, read-out: % Inhibition Point 2): 104%; inhibition at 5 µM (PLK1; 5 μM, read-out: % Inhibition mean): 104%; % Inhibition Point 1 (ADRBK1 (GRK2); Table 2): 2%; % Inhibition Point 2 (ADRBK1 (GRK2); Table 2): 5%; % Inhibition mean (ADRBK1 (GRK2); Table 2): 4%
